Assay results as given in US6562355B1, “Comixture of dextran sulfate/escin for treating skin redness/edema and/or sensitive skin” (Societe L'Oreal S.A., priority 1999, dated 2003).
“And” between values parts separate entries of the source, which are not always exact repeats. Equal entries are not always repeated.

Experiments:
[1] = cited from earlier work
[2] = solutions of pH ranging from 4 to 10 at room temperature; cited from earlier work
[3] = tested on: fragments of normal human skin kept alive (eyelid); experiment: Anti-edema and vasodilation-inhibitory effect in human skin kept alive after induction with substance P/TNFα/arachidonic acid (cocktail A); semi-quantitative histological scores; type: cell-based; conditions: skin + cocktail A (5 μM substance P, arachidonic acid 40 mg/ml, TNFα 50 ng/ml) 2 hours, 37° C., topical, escin 0.075%, dextran sulfate 0.20%, 3 donors; for Vasodilation (histological score of dilation of the capillaries): score 0 (no dilation) to 4 (very large dilation), cocktail A alone 2.2, control skin 0.37; for Edema (histological score): score 0 (no edema) to 4 (very considerable edema), cocktail A alone 2.8, control skin 0.62
From the text: The goal of this study was to visualize the anti-edema effect and the vasodilation-inhibitory effect of intimate admixture of dextran sulfate and escin, in a model of skin kept alive (eyelid) after the induction of edema and vasodilation by a neuromediator (substance P)/α-type tumor necrosis factor (TNFα)/arachidonic acid combination.
Fragments of normal human skin from 3 different donors (plastic surgery), mechanically freed of the subcutaneous fat and the inner layer of the dermis, were each placed on a culture insert consisting of a porous membrane (pores 12 μm in diameter) (Costar), the dermal portion of the skin fragment being placed in contact with the porous membrane. The assembly thus prepared was positioned over the wells of a Costar brand 12-well culture plate and maintained for 24 hours at 37° C. in an incubator under a humidified atmosphere containing 5% CO2.
DMEM culture medium (Gibco-BRL) containing 100 U/ml of penicillin and 100 μg/ml of streptomycin, 200 μg/ml of L-glutamine and 0. 1% fetal calf serum (D.A.P., France), was added to the bottom of the wells such that the liquid reached the porous membrane without passing it. Thus mounted, the skin was in contact via its lower face surface through the porous membrane with the culture medium, transport taking place by slow diffusion between the two compartments.
The edema and the vasodilation were produced experimentally by placing on the surface of the skin a mixture in a culture medium consisting of 25 μl of a neuromediator (5 μM substance P), arachidonic acid (25 μl of a solution at a concentration of 40 mg/ml in glycerol) and TNFα (50 ng/ml), hereinafter referred to as “cocktail A”. These substances were maintained in contact with the skin for 2 hours.
The test products were applied topically onto the skin fragments during the induction of the edema and the vasodilation.
The escin, at a final concentration of 0.075%, was dissolved in water.
The dextran sulfate, at a final concentration of 0.20%, was dissolved in propylene glycol.
The temperature was maintained at 37° C. throughout the test period.
The histological analyses were carried out according to the conventional techniques known to this art, without modification of the protocols.
After treatment, the skin fragments were removed and fixed in Bouin liquid and included in paraffin for the histological analyses.
After staining with hemalun-eosin, the two (2) criteria, edema and dilation of the capillaries, were evaluated by means of semi-quantitative histological scores.
The histological evaluation was carried out in the superficial dermis and in the top part of the middle dermis on the same number of fields four (4) fields at 10× magnification). […]

Row | Substance | solubility in water and saline solutions [1] | stability in solutions [2] | Vasodilation (histological score of dilation of the capillaries) [3] | Edema (histological score) [3]
1 | dextran sulfate | good | high | 1.8 and 1.8 ± 1.04 | 2.1 and 2.1 ± 1.04
2 | escin [reference compound] |  |  | 1.5 and 1.5 ± 0.5 | 1.16 and 1.16 ± 0.77
